From PubChem BioAssay (NCI)
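GI50: concentration for 50% inhibition of growth. TGI denotes the concentration required for complete inhibition of growth.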

Columns and labels:
Assay in all cases: NCI-60 cell line screen, 384-well format
NCI-H23 lung = test system: NCI-H23 lung
NCI-H322M lung = test system: NCI-H322M lung
NCI-H460 NSCLC = test system: NCI-H460 NSCLC
NCI-H522 lung = test system: NCI-H522 lung
NCI/ADR-RES ovarian = test system: NCI/ADR-RES ovarian
OVCAR-3 ovarian = test system: OVCAR-3 ovarian
OVCAR-4 ovarian = test system: OVCAR-4 ovarian
OVCAR-5 ovarian = test system: OVCAR-5 ovarian
OVCAR-8 ovarian = test system: OVCAR-8 ovarian
PC-3 prostate = test system: PC-3 prostate
RPMI-8226 leukemia = test system: RPMI-8226 leukemia
RXF 393 renal = test system: RXF 393 renal
SF-268 CNS = test system: SF-268 CNS
SF-295 CNS = test system: SF-295 CNS
SF-539 CNS = test system: SF-539 CNS
SK-MEL-2 melanoma = test system: SK-MEL-2 melanoma
SK-MEL-28 melanoma = test system: SK-MEL-28 melanoma
SK-MEL-5 melanoma = test system: SK-MEL-5 melanoma
SK-OV-3 ovarian = test system: SK-OV-3 ovarian
SN12C renal = test system: SN12C renal
SNB-19 CNS = test system: SNB-19 CNS
SNB-75 CNS = test system: SNB-75 CNS
SR leukemia = test system: SR leukemia
SW-620 colon = test system: SW-620 colon
T-47D breast = test system: T-47D breast
TK-10 renal = test system: TK-10 renal
U251 glioblastoma = test system: U251 glioblastoma
UACC-257 melanoma = test system: UACC-257 melanoma
UACC-62 melanoma = test system: UACC-62 melanoma
UO-31 renal = test system: UO-31 renal

Q: Which results are given for `COc1cc2nc(C)nc(N[C@H](C)c3cc(N)cc(C(F)(F)F)c3)c2cc1O[C@H]1CCOC1`?
A: GI50 (NCI-H23 lung): 3.42 µM; TGI (NCI-H23 lung): 17.7 µM; GI50 (NCI-H322M lung): 11.1 µM; TGI (NCI-H322M lung): 23.1 µM; GI50 (NCI-H460 NSCLC): 12 µM; TGI (NCI-H460 NSCLC): 24.6 µM; GI50 (NCI-H522 lung): 2.34 µM; TGI (NCI-H522 lung): 19.4 µM; GI50 (NCI/ADR-RES ovarian): 12.5 µM; TGI (NCI/ADR-RES ovarian): 25.4 µM; GI50 (OVCAR-3 ovarian): 6.28 µM; TGI (OVCAR-3 ovarian): 20.1 µM; GI50 (OVCAR-4 ovarian): 8.7 µM; TGI (OVCAR-4 ovarian): 21.4 µM; GI50 (OVCAR-5 ovarian): 11 µM; TGI (OVCAR-5 ovarian): 23.1 µM; GI50 (OVCAR-8 ovarian): 12.7 µM; TGI (OVCAR-8 ovarian): 25.3 µM; GI50 (PC-3 prostate): 11 µM; TGI (PC-3 prostate): 23.1 µM; GI50 (RPMI-8226 leukemia): 2.13 µM; TGI (RPMI-8226 leukemia): 13.2 µM; GI50 (RXF 393 renal): 2.43 µM; TGI (RXF 393 renal): 12.1 µM; GI50 (SF-268 CNS): 13.5 µM; TGI (SF-268 CNS): 26.3 µM; GI50 (SF-295 CNS): 12.8 µM; TGI (SF-295 CNS): 25.4 µM; GI50 (SF-539 CNS): 12.7 µM; TGI (SF-539 CNS): 25.3 µM; GI50 (SK-MEL-2 melanoma): 11.1 µM; TGI (SK-MEL-2 melanoma): 23.1 µM; GI50 (SK-MEL-28 melanoma): 12.6 µM; TGI (SK-MEL-28 melanoma): 25.2 µM; GI50 (SK-MEL-5 melanoma): 3.15 µM; TGI (SK-MEL-5 melanoma): 17.1 µM; GI50 (SK-OV-3 ovarian): 12.5 µM; TGI (SK-OV-3 ovarian): 25.1 µM; GI50 (SN12C renal): 2.86 µM; TGI (SN12C renal): 18.2 µM; GI50 (SNB-19 CNS): 12.5 µM; TGI (SNB-19 CNS): 25.1 µM; GI50 (SNB-75 CNS): 6.26 µM; TGI (SNB-75 CNS): 20 µM; GI50 (SR leukemia): 1.54 µM; TGI (SR leukemia): 8.64 µM; GI50 (SW-620 colon): 14.1 µM; TGI (SW-620 colon): 27.2 µM; GI50 (T-47D breast): 10.2 µM; TGI (T-47D breast): 21.9 µM; GI50 (TK-10 renal): 10.9 µM; TGI (TK-10 renal): 22.9 µM; GI50 (U251 glioblastoma): 10.9 µM; TGI (U251 glioblastoma): 22.8 µM; GI50 (UACC-257 melanoma): 4.86 µM; TGI (UACC-257 melanoma): 16.6 µM; GI50 (UACC-62 melanoma): 13.4 µM; TGI (UACC-62 melanoma): 26.2 µM; GI50 (UO-31 renal): 12.2 µM; TGI (UO-31 renal): 24.7 µM
